Results published in patent publication US5633248A, “Amine compounds, their production and use” (priority 1994, dated 1997).
Structures can show the parent of a compound that is named as a salt. Blank lines part the entries; values can stand above or below the molecule they belong to.

Tests used:
[1] = biological target: T1, Human GnRH receptor (Homo sapiens, UniProt P30968); assay: ^125 I-leuprolerin binding inhibition, human GnRH receptor-expressed CHO cell membrane fraction; conditions: 25° C. for 60 minutes, read-out: GnRH-receptor binding inhibitory activity (IC50, μM) Man
T1 construct: expressed in transfected cells; host or cells: CHO (Chinese hamster ovary) cells, membrane fraction
T1 sequence (P30968 1-328): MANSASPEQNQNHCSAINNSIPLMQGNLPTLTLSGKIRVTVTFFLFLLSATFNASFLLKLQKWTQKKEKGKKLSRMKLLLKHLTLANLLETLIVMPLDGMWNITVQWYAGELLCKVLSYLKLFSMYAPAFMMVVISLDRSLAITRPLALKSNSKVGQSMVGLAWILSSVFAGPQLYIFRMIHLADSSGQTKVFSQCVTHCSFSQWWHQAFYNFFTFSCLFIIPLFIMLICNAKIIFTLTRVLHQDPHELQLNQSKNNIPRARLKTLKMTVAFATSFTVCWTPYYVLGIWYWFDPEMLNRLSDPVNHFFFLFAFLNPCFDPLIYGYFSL
Experimental: A tube was filled with 10 μl of an aqueous solution of leuprolerin (3×10^4 M) and lactoperoxidase (0.01 mg/ml) followed by addition of 10 μl of Na^125 I solution (37 MBq). After stirring, 10 μl of 0.001% H2 O2 was added and the reaction was conducted at room temperature for 20 minutes. The reaction was stopped by adding 700 μl of 0.05% TFA and the reaction mixture was subjected to reversed-phase HPLC under the conditions set forth below. ^125 I-leuprolerin was eluted with a retention time of 26-27 minutes. […] To the sediment was added 10 ml of a cell homogenate buffer (10 mM NaHCO3, 5 mM EDTA, pH 7.5) and the mixture was homogenized using a Polytron homogenizer. The homogenate was centrifuged at 400 xg for 15 minutes and the supernatant was transferred to an ultracentrifuge cuvette and centrifuged at 100,000 xg for 1 hour to prepare a membrane fraction pellet. This pellet was suspended in 2 ml of the assay buffer and further centrifuged at 100,000 xg for 1 hour. The membrane fraction recovered as a pellet was resuspended in 20 ml of the assay buffer, distributed into vials, preserved at -80° C., and reconstituted before use. The rat and human membrane fractions prepared under (B) and (D) were respectively diluted with the assay buffer to make 200 μg/ml each and 188 μl aliquots of each dilution were distributed into tubes. The bovine membrane fraction prepared under (C) was diluted with the assay buffer to make 750 μg/ml and 188 μl aliquots of the dilution were distributed into tubes. When the rat anterior pituitary membrane fraction was used, 2 μl of 0.1 mM compound/60% dimethyl sulfoxide (DMSO) and 10 μl of 38 nM ^125 I-leuprolerin were concurrently added. […] For determination of maximum binding, a reaction mixture was prepared by adding 2 μl of 60% DMSO and 10 μl of 38 nM ^125 I-leuprolerin. For determination of non-specific binding, a reaction mixture was prepared using 2 μl of 100 μM leuprolerin/60% DMSO and 10 μl of […] ^125 I-leuprolerin. When the rat and bovine anterior pituitary membrane fractions were used, each reaction was carried out at 4° C. for 90 minutes. On the other hand, when the human GnRH receptor-expressed CHO cell membrane fraction was used, the reaction was conducted at 25° C. for 60 minutes. After completion of the reaction, the reaction mixture was suction-filtered through a polyethyleneimine-treated Whatman glass filter (GF-F) [trademark;whatman]. After filtration, the radioactivity of the residual ^125 I-leuprolerin on the filter was measured using a γ-counter. The computation formula of (TB-SB)/(TB-NSB)×100 (SB=radioactivity bound in the presence of the test compound, TB=maximum amount of radioactivity bound, NSB=amount of radioactivity nonspecifically bound) was calculated to find the binding inhibition rate for the test compound. Moreover, the inhibition rate was determined by varying the concentration of each test compound and the concentration of the compound causing 50% inhibition of binding (IC50 value) was calculated by Hill plot.

[2] = biological target: T2, Rat GnRH Receptor (Rattus norvegicus, UniProt P30969); assay: ^125 I-leuprolerin binding inhibition, rat anterior pituitary membrane fraction; set-up: species or system rat (Wistar); conditions: 4° C. for 90 minutes, read-out: GnRH-receptor binding inhibitory activity (IC50, μM) Rat
T2 construct: from tissue; host or cells: anterior pituitary of male Wistar rats (8 weeks old), membrane fraction
T2 sequence (P30969 1-327): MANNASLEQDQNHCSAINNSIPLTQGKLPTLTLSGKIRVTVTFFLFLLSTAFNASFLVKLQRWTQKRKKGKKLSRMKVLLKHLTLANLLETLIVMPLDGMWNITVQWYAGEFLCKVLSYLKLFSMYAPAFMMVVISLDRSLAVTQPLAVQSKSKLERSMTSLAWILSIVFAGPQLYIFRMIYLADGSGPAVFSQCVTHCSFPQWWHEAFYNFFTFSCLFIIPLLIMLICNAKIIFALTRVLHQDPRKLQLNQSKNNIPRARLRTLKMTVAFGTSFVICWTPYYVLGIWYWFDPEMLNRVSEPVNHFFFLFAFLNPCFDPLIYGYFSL
Experimental: A tube was filled with 10 μl of an aqueous solution of leuprolerin (3×10^4 M) and lactoperoxidase (0.01 mg/ml) followed by addition of 10 μl of Na^125 I solution (37 MBq). After stirring, 10 μl of 0.001% H2 O2 was added and the reaction was conducted at room temperature for 20 minutes. The reaction was stopped by adding 700 μl of 0.05% TFA and the reaction mixture was subjected to reversed-phase HPLC under the conditions set forth below. ^125 I-leuprolerin was eluted with a retention time of 26-27 minutes. Forty rats (8 weeks old, male) of Wistar strain were decapitated under no anesthesia and the anterior pituitary isolated from each animal was washed with an ice-cooled homogenate buffer (25 mM Tris (tris(hydroxylmethyl)aminomethane)-HCl, 0.3M sucrose, 1 mM EGTA (ethylene-bis(oxyethylenenitrilo)tetraacetic acid), 0.25 mM PMSF (phenylmethylsulfonyl fluoride), 10 U/ml aprotinin, 1 μg/ml pepstatin, 20 μg/ml leupeptin, 100 μg/ml phosphoramidon, 0.03% sodium azide; pH 7.5). The anterior pituitary was suspended in 2 ml of the same homogenate buffer as above and homogenized using a Polytron homogenizer. The homogenate thus prepared was centrifuged at 700 xg for 15 minutes and the supernatant was transferred to an ultracentrifuge cuvette and further centrifuged at 100,000 xg for 1 hour to provide a membrane fraction pellet. This pellet was suspended in 2 ml of an assay buffer (25 mM Tris-HCl, 1 mM ethylenediaminetetraacetic acid (EDTA), 0.1% bovine serum albumin (BSA), 0.25 mM PMSF, 1 μg/ml pepstatin, 20 μg/ml leupeptin, 100 μg/ml phosphoramidon, 0.03% sodium azide; pH 7.5) and centrifuged at 100,000 xg for 1 hour. The membrane fraction recovered as a pellet was resuspended in 10 ml of the same assay buffer as above, distributed into vials, preserved at -80° C., and reconstituted before use. The rat and human membrane fractions prepared under (B) and (D) were respectively diluted with the assay buffer to make 200 μg/ml each and 188 μl aliquots of each dilution were distributed into tubes. The bovine membrane fraction prepared under (C) was diluted with the assay buffer to make 750 μg/ml and 188 μl aliquots of the dilution were distributed into tubes. When the rat anterior pituitary membrane fraction was used, 2 μl of 0.1 mM compound/60% dimethyl sulfoxide (DMSO) and 10 μl of 38 nM ^125 I-leuprolerin were concurrently added. […] For determination of maximum binding, a reaction mixture was prepared by adding 2 μl of 60% DMSO and 10 μl of 38 nM ^125 I-leuprolerin. For determination of non-specific binding, a reaction mixture was prepared using 2 μl of 100 μM leuprolerin/60% DMSO and 10 μl of […] ^125 I-leuprolerin. When the rat and bovine anterior pituitary membrane fractions were used, each reaction was carried out at 4° C. for 90 minutes. On the other hand, when the human GnRH receptor-expressed CHO cell membrane fraction was used, the reaction was conducted at 25° C. for 60 minutes. After completion of the reaction, the reaction mixture was suction-filtered through a polyethyleneimine-treated Whatman glass filter (GF-F) [trademark;whatman]. After filtration, the radioactivity of the residual ^125 I-leuprolerin on the filter was measured using a γ-counter. The computation formula of (TB-SB)/(TB-NSB)×100 (SB=radioactivity bound in the presence of the test compound, TB=maximum amount of radioactivity bound, NSB=amount of radioactivity nonspecifically bound) was calculated to find the binding inhibition rate for the test compound. Moreover, the inhibition rate was determined by varying the concentration of each test compound and the concentration of the compound causing 50% inhibition of binding (IC50 value) was calculated by Hill plot.

Compound: COc1ccc(CC(=O)NCCCC(CCCN2CCCCC23CCc2cc(OC)c(OC)cc2C3)(c2ccccc2)c2ccccc2)cc1OC (centres unmarked) [II-59, 3,4-Dihydro-6,7-dimethoxy-1'-{7-[(3,4-dimethoxyphenylacetyl)amino]-4,4-diphenylheptyl}spiro[naphthalene-2(1H),2'-piperidine] hydrochloride]
IC50 [1]: 0.4 µM
IC50 [2]: 0.02 µM

Compound: COc1cc2c(cc1OC)CC(N(CCCC(CCCNC(C)=O)(c1ccccc1)c1ccccc1)Cc1ccccc1)CC2 (centres unmarked) [II-43, 7-Acetylamino-1-{N-benzyl-N-[2-(6,7-dimethoxy-1,2,3,4-tetrahydronaphthyl)]amino}-4,4-diphenylheptane dihydrochloride]
IC50 [2]: 0.2 µM

Compound: COc1ccc2c(c1)CCC1(CCCCN1CCCC(CCCNC(C)=O)(c1ccccc1)c1ccccc1)C2 (centres unmarked) [II-45, 1'-(7-Acetylamino-4,4-diphenylheptyl)-3,4-dihydro-6-methoxyspiro[naphthalene-2(1H),2'-piperidine] dihydrochloride]
IC50 [2]: 0.08 µM

Compound: COc1cccc2c1CC1(CCCCN1CCCC(CCCNC(C)=O)(c1ccccc1)c1ccccc1)CC2 (centres unmarked) [II-44, 1'-(7-Acetylamino-4,4-diphenylheptyl)-3,4-dihydro-8-methoxyspiro[naphthalene-2(1H),2'-piperidine] dihydrochloride]
IC50 [2]: 0.4 µM

Compound: COc1cc2c(cc1OC)CC1(CCCCN1CCCC(CCCNC(C)=O)(c1ccccc1)c1ccccc1)CC2 (centres unmarked) [II-46, 1'-(7-Acetylamino-4,4-diphenylheptyl)-3,4-dihydro-6,7-dimethoxyspiro[naphthalene-2(1H),2'-piperidine] dihydrochloride]
IC50 [2]: 0.003 µM

Compound: COc1cc2c(cc1OC)CC1(CCCCN1CCCC(CCCNC(=O)COc1ccccc1)(c1ccccc1)c1ccccc1)CC2 (centres unmarked) [II-61, 3,4-Dihydro-6,7-dimethoxy-1'-{4,4-diphenyl-7-[(phenoxyacetyl)amino]heptyl}spiro[naphthalene-2(1H),2'-piperidine] hydrochloride]
IC50 [2]: 0.01 µM

Compound: COc1ccc2c(c1)CCC1(CCCCN1CCCC(CCNC(C)=O)(c1ccccc1)c1ccccc1)C2 (centres unmarked) [II-37, 3,4-Dihydro-6-methoxy-1'-(6-acetylamino-4,4-diphenylhexyl)spiro[naphthalene-2(1H),2'-piperidine] dihydrochloride]
IC50 [2]: 0.3 µM

Next, values leading:

IC50 [1]: 0.11 µM
IC50 [2]: 0.0016 µM
Compound: COc1ccc(CC(=O)NCCCC(CCCN2CCCCC23CCc2cc(OC)c(OC)cc2C3)(c2ccccc2)c2ccccc2)cc1 (centres unmarked) [II-58, 3,4-Dihydro-6,7-dimethoxy-1'-{4,4-diphenyl-7-[(4-methoxyphenylacetyl)amino]heptyl}spiro[naphthalene-2(1H),2'-piperidine] hydrochloride]

IC50 [1]: 0.2 µM
IC50 [2]: 0.002 µM
Compound: COc1cc2c(cc1OC)CC1(CCCCN1CCCC(CCCNC(=O)Cc1ccccc1)(c1ccccc1)c1ccccc1)CC2 (centres unmarked) [II-48, 3,4-Dihydro-6,7-dimethoxy-1'-[4,4-diphenyl-7-(phenylacetylamino)heptyl]spiro[naphthalene-2(1H),2'-piperidine] hydrochloride]

IC50 [1]: 0.02 µM
IC50 [2]: 0.001 µM
Compound: COc1ccc(CCC(=O)NCCCC(CCCN2CCCCC23CCc2cc(OC)c(OC)cc2C3)(c2ccccc2)c2ccccc2)cc1 (centres unmarked) [II-65, 3,4-Dihydro-6,7-dimethoxy-1'-{4,4-diphenyl-7-{[3-(4-methoxyphenyl)propionyl]amino}heptyl}spiro[naphthalene-2(1H),2'-piperidine] hydrochloride]

IC50 [1]: 0.3 µM
IC50 [2]: 0.003 µM
Compound: COc1cc2c(cc1OC)CC1(CCCCN1CCCC(CCCNC(=O)Cc1cccc3ccccc13)(c1ccccc1)c1ccccc1)CC2 (centres unmarked) [II-66, 3,4-Dihydro-6,7-dimethoxy-1'-{4,4-diphenyl-7-[(1-naphthylacetyl)amino]heptyl}spiro[naphthalene-2(1H),2'-piperidine] hydrochloride]

IC50 [1]: 0.08 µM
IC50 [2]: 0.0007 µM
Compound: COc1cc2c(cc1OC)CC1(CCCCN1CCCC(CCCNC(=O)Cc1ccc(F)cc1)(c1ccccc1)c1ccccc1)CC2 (centres unmarked) [II-50, 3,4-Dihydro-6,7-dimethoxy-1'-{4,4-diphenyl-7-[(4-fluorophenylacetyl)amino]heptyl}spiro[naphthalene-2(1H),2'-piperidine] hydrochloride]

IC50 [1]: 0.4 µM
IC50 [2]: 0.001 µM
Compound: COc1cc2c(cc1OC)CC1(CCCCN1CCCC(CCCNC(=O)Cc1ccsc1)(c1ccccc1)c1ccccc1)CC2 (centres unmarked) [II-63, 3,4-Dihydro-6,7-dimethoxy-1'-{4,4-diphenyl-7-[(3-thienylacetyl)amino]heptyl}spiro[naphthalene-2(1H),2'-piperidine] hydrochloride]
